This passage reports IC50 results from patent publication US8143290B2, “Chemical compounds 572” (AstraZeneca AB, priority 2006, dated 2012).

This assay concerns the target T1, recombinant human GR (Homo sapiens, UniProt P04150).
T1 construct: purchased Panvera/Invitrogen P2812 (kit P2893)
T1 sequence (P04150 1-777): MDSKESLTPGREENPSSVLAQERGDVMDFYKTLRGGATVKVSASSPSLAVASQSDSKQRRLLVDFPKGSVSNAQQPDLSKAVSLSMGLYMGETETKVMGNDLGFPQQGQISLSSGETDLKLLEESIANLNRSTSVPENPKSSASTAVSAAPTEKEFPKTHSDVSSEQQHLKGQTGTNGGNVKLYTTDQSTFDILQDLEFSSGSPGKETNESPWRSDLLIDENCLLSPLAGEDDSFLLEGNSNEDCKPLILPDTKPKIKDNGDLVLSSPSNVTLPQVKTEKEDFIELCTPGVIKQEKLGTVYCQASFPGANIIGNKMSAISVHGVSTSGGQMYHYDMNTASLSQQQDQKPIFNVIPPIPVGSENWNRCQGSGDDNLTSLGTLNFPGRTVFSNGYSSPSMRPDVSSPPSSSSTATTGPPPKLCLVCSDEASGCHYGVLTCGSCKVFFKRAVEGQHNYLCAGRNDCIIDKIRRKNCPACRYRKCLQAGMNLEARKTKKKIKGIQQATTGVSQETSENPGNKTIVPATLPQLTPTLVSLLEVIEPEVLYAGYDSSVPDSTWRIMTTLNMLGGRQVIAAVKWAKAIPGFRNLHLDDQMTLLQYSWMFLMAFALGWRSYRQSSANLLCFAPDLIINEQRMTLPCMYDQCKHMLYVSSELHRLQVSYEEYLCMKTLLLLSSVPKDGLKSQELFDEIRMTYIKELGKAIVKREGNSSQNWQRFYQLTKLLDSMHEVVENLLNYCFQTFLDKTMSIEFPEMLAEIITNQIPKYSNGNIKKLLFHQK
Kind of assay: Human Glucocorticoid Receptor (GR) Assay, fluorescence polarization. The conditions noted are these: GS Red tracer, incubated 2 h at r.t., XLfit model 205, read-out: GRhuFL_FP_v2 Mean IC50. Type of assay: binding. The method in brief: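 After 2 h dark incubation at r.t., polarization reported displacement of the GS Red tracer from recombinant GR, in buffer with phosphate, molybdate, EDTA, DTT and Stabilizing Peptide. Controls: dexamethasone (100%) and DMSO (0%).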
The IC50 is the concentration needed to halve the response being measured. In the case of `Cc1cc(F)ccc1[C@@H](Oc1ccc2c(cnn2-c2ccc(F)cc2)c1)[C@H](C)NC(=O)C(C)(C)C` [Example 179, N-[(1R,2S)-1-(4-fluoro-2-methyl-phenyl)-1-[1-(4-fluorophenyl)indazol-5-yl]oxy-propan-2-yl]-2,2-dimethyl-propanamide], the IC50 was found to be 3.7 nM.
In the case of `C[C@H](NC(=O)C(C)(C)C)[C@H](Oc1ccc2c(cnn2-c2ccc(F)cc2)c1)c1cccc(F)c1` [Example 174, N-[(1R,2S)-1-(3-fluorophenyl)-1-[1-(4-fluorophenyl)indazol-5-yl]oxy-propan-2-yl]-2,2-dimethyl-propanamide] it was 4.1 nM; in that of `C[C@H](NC(=O)C(C)(C)C)[C@H](Oc1ccc2c(cnn2-c2ccc(F)cc2)c1)c1cc(F)cc(Cl)c1` [Example 184, N-[(1R,2S)-1-(3-chloro-5-fluoro-phenyl)-1-[1-(4-fluorophenyl)indazol-5-yl]oxy-propan-2-yl]-2,2-dimethyl-propanamide], 5.1 nM.
In the case of `COc1cccc([C@@H](Oc2ccc3c(cnn3-c3ccc(F)cc3)c2)[C@H](C)NC(=O)c2sccc2C)c1` [Example 132, N-[(1R,2S)-1-[1-(4-fluorophenyl)indazol-5-yl]oxy-1-(3-methoxyphenyl)propan-2-yl]-3-methyl-thiophene-2-carboxamide] it was 4.1 nM; in that of `Cc1ccc([C@@H](Oc2ccc3c(cnn3-c3ccc(F)cc3)c2)[C@H](C)NC(=O)C(C)(C)F)c(C)c1` [Example 245, N-[(1R,2S)-1-(2,4-dimethylphenyl)-1-[1-(4-fluorophenyl)indazol-5-yl]oxy-propan-2-yl]-2-fluoro-2-methyl-propanamide], 5.5 nM; in that of `COc1cccc([C@@H](Oc2ccc3c(cnn3-c3ccc(F)cc3)c2)[C@H](C)NC(=O)c2cn(C)cn2)c1` [Example 283, N-[(1R,2S)-1-[1-(4-fluorophenyl)indazol-5-yl]oxy-1-(3-methoxyphenyl)propan-2-yl]-1-methyl-imidazole-4-carboxamide], 4.7 nM.
Turning to `CC(C)C[C@H](NC(=O)C(F)(F)F)[C@H](Oc1ccc2c(cnn2-c2ccc(F)cc2)c1)c1cccc(F)c1` [Example 110, 2,2,2-Trifluoro-N-{(1S)-1-[(R)-(3-Fluorophenyl)-{[1-(4-fluorophenyl)-1H-indazole-5-yl]oxy}methyl}-3-methylbutyl}-acetamide], the IC50 came to 29 nM.
In the case of `COc1cccc([C@@H](Oc2ccc3c(cnn3-c3ccc(F)cc3)c2)[C@H](C)NC(=O)c2cc(C)on2)c1` [Example 136, N-[(1R,2S)-1-[1-(4-fluorophenyl)indazol-5-yl]oxy-1-(3-methoxyphenyl)propan-2-yl]-5-methyl-1,2-oxazole-3-carboxamide] it was 3 nM.
In the case of `CSc1ccc([C@@H](Oc2ccc3c(cnn3-c3ccc(F)cc3)c2)[C@H](C)NC(=O)CO)cc1` [Example 11, N-[(1R,2S)-1-[1-(4-fluorophenyl)indazol-5-yl]oxy-1-(4-methylsulfanylphenyl)propan-2-yl]-2-hydroxy-acetamide], the IC50 came out at 2.1 nM.
In the case of `C[C@H](NC(=O)C(F)(F)F)[C@H](Oc1ccc2c(cnn2-c2ccc(F)cc2)c1)c1ccc(SC2CC2)cc1` [Example 15, N-[(1R,2S)-1-(4-cyclopropylsulfanylphenyl)-1-[1-(4-fluorophenyl)indazol-5-yl]oxy-propan-2-yl]-2,2,2-trifluoro-acetamide] it was 6.8 nM; in that of `COc1ccc(F)cc1[C@@H](Oc1ccc2c(cnn2-c2ccc(F)cc2)c1)[C@H](C)NC(=O)C(C)(C)F` [Example 250, 2-fluoro-N-[(1R,2S)-1-(5-fluoro-2-methoxy-phenyl)-1-[1-(4-fluorophenyl)indazol-5-yl]oxy-propan-2-yl]-2-methyl-propanamide], 6.9 nM.
In the case of `C[C@H](NC(=O)C(F)F)[C@H](Oc1ccc2c(cnn2-c2ccc(F)cc2)c1)c1ccccc1` [Example 44, 2,2-Difluoro-N-[(1R,2S)-1-[1-(4-fluorophenyl)indazol-5-yl]oxy-1-phenyl-propan-2-yl]acetamide] it was 2.7 nM; in that of `CCCC(=O)N[C@@H](C)[C@H](Oc1ccc2c(cnn2-c2ccc(F)cc2)c1)c1ccccc1` [Example 41, N-[(1R,2S)-1-[1-(4-fluorophenyl)indazol-5-yl]oxy-1-phenyl-propan-2-yl]butanamide], 2.6 nM; in that of `COc1cccc([C@@H](Oc2cc3cnn(-c4ccc(F)cc4)c3cc2C)[C@H](C)NC(=O)CO)c1` [Example 67, N-[(1R,2S)-1-[1-(4-Fluorophenyl)-6-methyl-indazol-5-yl]oxy-1-(3-methoxyphenyl)propan-2-yl]-2-hydroxy-acetamide], 4.1 nM.
In the case of `COc1cccc([C@@H](Oc2ccc3c(cnn3-c3ccc(F)cc3)c2)[C@H](C)NC(=O)c2cnoc2C)c1` [Example 284, N-[(1R,2S)-1-[1-(4-fluorophenyl)indazol-5-yl]oxy-1-(3-methoxyphenyl)propan-2-yl]-5-methyl-1,2-oxazole-4-carboxamide] it was 22 nM; in that of `COc1cccc([C@@H](Oc2ccc3c(cnn3-c3ccc(F)cc3)c2)[C@H](C)NC(=O)c2ccco2)c1` [Example 86, N-((1R,2S)-1-(1-(4-fluorophenyl)-1H-indazol-5-yloxy)-1-(3-methoxyphenyl)propan-2-yl)furan-2-carboxamide], 3.8 nM.
With `COc1cccc([C@@H](Oc2ccc3c(cnn3-c3ccc(F)cc3)c2)[C@H](C)NC(=O)c2ncsc2C)c1` [Example 288, N-[(1R,2S)-1-[1-(4-fluorophenyl)indazol-5-yl]oxy-1-(3-methoxyphenyl)propan-2-yl]-5-methyl-1,3-thiazole-4-carboxamide], the IC50 came out at 5 nM.
Take `COCC(=O)N[C@@H](COC)[C@H](Oc1ccc2c(cnn2-c2ccc(F)cc2)c1)c1cccc(F)c1` [Example 111, N-[(1)-(2R)-(3-Fluorophenyl)-2-{[1-(4-fluorophenyl)-1H-indazole-5-yl]oxy}-1-(methoxymethyl)ethyl]-2-methoxyacetamide]: the IC50 was determined as 15 nM.
In the case of `COc1cccc([C@@H](Oc2ccc3c(cnn3-c3ccc(F)cc3)c2)[C@H](C)NC(=O)c2nc3ccccc3s2)c1` [Example 297, N-[(1R,2S)-1-[1-(4-fluorophenyl)indazol-5-yl]oxy-1-(3-methoxyphenyl)propan-2-yl]benzothiazole-2-carboxamide] it was 8.6 nM.
In the case of `CC[C@H](NC(=O)CO)[C@H](Oc1ccc2c(cnn2-c2ccc(F)cc2)c1)c1cccc(OC)c1` [Example 97, N-((1R,2S)-1-(1-(4-fluorophenyl)-1H-indazol-5-yloxy)-1-(3-methoxyphenyl)butan-2-yl)-2-hydroxyacetamide] it was 3.3 nM; in that of `Cc1ccc(C)c([C@@H](Oc2ccc3c(cnn3-c3ccc(F)cc3)c2)[C@H](C)NC(=O)C(C)(C)C)c1` [Example 175, N-[(1R,2S)-1-(2,5-dimethylphenyl)-1-[1-(4-fluorophenyl)indazol-5-yl]oxy-propan-2-yl]-2,2-dimethyl-propanamide], 4.3 nM.
Take `CCc1ccc([C@@H](Oc2ccc3c(cnn3-c3ccc(F)cc3)c2)[C@H](C)NC(=O)C(C)C)cc1` [Example 51, N-[(1R,2S)-1-(4-ethylphenyl)-1-[1-(4-fluorophenyl)indazol-5-yl]oxy-propan-2-yl]-2-methyl-propanamide]: the IC50 was 4.3 nM.
In the case of `COc1cccc([C@@H](Oc2ccc3c(cnn3-c3ccc(F)cc3)c2)[C@H](C)NC(=O)c2nc3ccccc3[nH]2)c1` [Example 294, N-[(1R,2S)-1-[1-(4-fluorophenyl)indazol-5-yl]oxy-1-(3-methoxyphenyl)propan-2-yl]-1H-benzoimidazole-2-carboxamide] it was 4.1 nM.
Regarding `C[C@H](NC(=O)C(C)(F)F)[C@H](Oc1ccc2c(cnn2-c2ccc(F)cc2)c1)c1cccc(F)c1` [Example 230, 2,2-difluoro-N-[(1R,2S)-1-(3-fluorophenyl)-1-[1-(4-fluorophenyl)indazol-5-yl]oxy-propan-2-yl]propanamide], the IC50 is 4.8 nM.
Regarding `COc1cccc([C@@H](Oc2cc3cnn(-c4ccc(F)cc4)c3cc2C)[C@H](C)NC(=O)C(F)(F)F)c1` [Example 65, 2,2,2-Trifluoro-N-[(1R,2S)-1-[1-(4-fluorophenyl)-6-methyl-indazol-5-yl]oxy-1-(3-methoxyphenyl)propan-2-yl]acetamide], the half-maximal inhibitory concentration (IC50) was 3.8 nM.
In the case of `C[C@H](NC(=O)C(F)Cl)[C@H](Oc1ccc2c(cnn2-c2ccc(F)cc2)c1)c1ccccc1` (stereo partly drawn) [Example 47, 2-Chloro-2-fluoro-N-[(1R,2S)-1-[1-(4-fluorophenyl)indazol-5-yl]oxy-1-phenyl-propan-2-yl]acetamide] it was 2.5 nM.
